The values below come from article PMC6305398, “Red Fluorescent Chlamydia trachomatis Applied to Live Cell Imaging and Screening for Antibacterial Agents” (Frontiers in Microbiology, 2018).

In brackets after ≈: the same amount, converted by molar mass. Like-named read-outs stand apart in the source and are kept apart here.

For one data set, the system named is wt C. trachomatis. The experiment in a line: Doxycycline susceptibility, large inclusion count after immunostaining. The note with it: Chlamydia trachomatis; wt strain, HeLa cells, 48 h, FITC immunostaining; read-out: EC50 with 95% confidence interval. The data set is classed as cell-based.
In data set [1] the test system is mCherry expressing C. trachomatis. As to the kind of experiment: Doxycycline susceptibility, large inclusion count by live mCherry imaging. The class given is cell-based. The note with it: Chlamydia trachomatis, HeLa, 48 h, read-out: EC50 with 95% confidence interval. The protocol:
HeLa 299 cells, cultured to 70% confluence were harvested and seeded into 96-well plates (clear, flat, Nunclon Delta coated, Nunc, Thermo Fischer Scientific, Waltham, MA, USA) at a density of 10,000 per well in culture media (DMEM or RPMI 1640 supplemented with 10% FBS, 2 mM L-glutamine and 50 μg/ml gentamicin). After overnight incubation in 37°C with 5% CO2, adherent cells were infected with 30 μl mCherry expressing Chlamydia per well in HBSS with a multiplicity of infection (MOI) of 0.6. Chlamydia were incubated with the cells for 1 h at 37°C with 5% CO2 after which HBSS was removed and replaced with 100 μl culture media. DNA of host cell nuclei and Chlamydia inclusions were visualized by addition of 10 μl 10 μg/ml Hoechst 20 min prior to imaging. Live images were acquired 48 hpi in an automated HCS microscope (ArrayScan VTI, Thermo Fischer Scientific) using the 10x objective, excitation 549/15 nm for mCherry and excitation 386/23 nm for Hoechst. The number of large Chlamydia inclusions was enumerated using the built in software. An inclusion size cutoff was determined based on the 48 hpi Chlamydia inclusions to include normally developed Chlamydia inclusions and exclude fluorescent artifacts from the analyses. […] Large inclusions were counted by Arrayscan and EC50 values determined using GraphPad Prism v.5 (GraphPad software, La Jolla, CA, USA) with non-linear regression.

Data set [2] relates to mCherry expressing C. trachomatis serovar L2 454/Bu. The experiment in a line: Primary screen of natural compound library, Chlamydia inclusion count (mCherry imaging and FITC immunostaining in duplicate plates). The class given is cell-based, Chlamydia trachomatis. The note with it: for inhibition at 10 µM: Chlamydia trachomatis, 48 hpi, HeLa cells, vs DMSO control. The protocol: A general and more detailed protocol for the screening assay is provided in (Supplementary Data Sheet 1) and an overview of the screening method is given in Figure 3. Since inhalation of C. trachomatis aerosols can cause laboratory acquired infections (Sewell, [1995]), all procedures involving handling of live infection in open plates were performed manually inside a class II safety cabinet using 8-channel electronic pipets (Rainin E4 XLS, Mettler Toledo, Barcelona, Spain) and an enclosed aspiration system (Intergra VacuSafe, Zizers, Switzerland).
The primary screen of the 349 open access compound library was performed using the mCherry expressing C. trachomatis serovar L2 454/Bu in clear, flat 96-well plates (Nunc, Delta surface, Thermo Fischer Scientific). The primary screen was done in duplicates in separated plates; one plate was used for mCherry imaging and the other for FITC immunostaining. Cells were seeded at a density of 10,000 cells per well in 100 μl DMEM media 1 day prior to infection in culture media. Chlamydia infection was performed in 30 μl HBSS as described above with a MOI of 0.6 during 1 h at 37°C, 5% CO2. Compounds were diluted to 10 μM in DMEM with a final DMSO concentration of 0.5% and 100 μl per well was added after aspiration of HBSS. The plates were incubated for an additional 47 h at 37°C, 5% CO2 prior to imaging. One of the duplicate plates was used for mCherry imaging and one for FITC immunostaining. For mCherry imaging, HeLa cell nuclei were first stained by addition of 10 μl […] Hoechst per well and incubated at 37°C with 5% CO2 for 20 min. The infected cells were fixed in 4% paraformaldehyde (PFA) for 15 min and washed in PBS before image acquisition. Although fixation was not necessary for the analysis, it inactivated the infectious Chlamydia and enabled later analysis after storage at 4°C. For FITC immunostaining, cells were fixed in 150 μl methanol per well for 10 min, blocked in 1% BSA, 0.25% Tween-20 in PBS and incubated with 1:1,000 polyclonal rabbit anti-chlamydial serum in blocking buffer (Marwaha et al., [2014]). A FITC-conjugated donkey anti-rabbit antibody (Jackson ImmunoResearch) and 1 μg/ml Hoechst staining was used for staining followed by washing with blocking buffer. Images of nuclei (Hoechst-ex386/23 nm) and Chlamydia inclusions (FITC: ex485/20 nm; mCherry: ex549/15 nm) were acquired in the ArrayScan with the 10x objective and counted with the built in software. Chlamydia inclusions in DMSO control wells were used to determine an inclusion size cutoff to exclude small underdeveloped inclusions as well as fluorescent artifacts from the analyses.

A short description of the next data set: in vitro. The note with it: human, 48 h, percent of DMSO control; for viability at 25 µM: read-out: HeLa cell viability at 25 μM (%); for viability at 50 µM: read-out: HeLa cell viability at 50 μM (%) (converted). The class given is cell-based. On the procedure: (§1) HeLa299 cells were inoculated into clear, flat 96-well plates (Nunc, Delta surface, Thermo Fischer Scientific) with a density of 7,000 cells per well and cultured overnight at 37°C with 5% CO2 in […] supplemented with 10% FBS and 2 mM L-glutamine. The following day, the RPMI was replaced with DMEM without phenol red (Life Technologies, Carlsbad, CA, USA) containing 0.5% DMSO with or without test compounds at 25 and 50 μM concentrations incubated at 37°C with 5% CO2 for 48 h. At least three replicate wells for each compound concentration were tested. Wells without cells were used as blank controls. Following this incubation with compounds, cells were washed with DMEM to remove remaining colored compounds and fresh DMEM without phenol red was added before the XTT Cell Proliferation Assay kit was used according to the manufacturer's instructions (ATCC, Manassas, VA, USA). Briefly, activation reagent and XTT reagent were thawed at 37°C, then mixed in a 1:50 ratio with enough volume to add 50 μL to each well. The plates were placed in the 37°C incubator for 2.5 h. The absorbance of each well was then read at 475 nm and 660 nm with a Tecan Infinite m200 plate reader (Tecan, Männedorf, Switzerland). To analyze the data, the 660 nm reading was subtracted from the 475 nm reading to help eliminate non-specific readings from the assay results. Average blank control-well readings were subtracted from those containing cells. Final readings from wells containing compound were compared to DMSO control wells and expressed as percent of control.

Another data set deals with HeLa cells. As to the kind of experiment: in vitro. The class given is cell-based. The protocol:
as §1

A further data set concerns Staphylococcus aureus. The note with it: ref Beattie et al., 2016; cited from earlier work.
Data set [3] concerns Plasmodium falciparum parasites. The note with it: antimalarial activity; ref Choomuenwai et al., 2012; cited from earlier work.
For another data set, the system named is mammalian cells. The settings on record: cited from earlier work.
For data set [4] the following is noted: ref Davis et al., 2013; cited from earlier work.
In another data set the test system is Trypanosoma brucei. The settings on record: ref Zulfiqar et al., 2017; cited from earlier work.
Another data set relates to T. cruzi. The note with it: ref Zulfiqar et al., 2017; cited from earlier work.
Where [5] appears, read: MOI 0.6, FITC immunostaining, read-out: Screen inhibition at 10 μM (%) FITC.
Setting [6] is: MOI 0.6, mCherry detection, read-out: Screen inhibition at 10 μM (%) mCherry.

Take `C[C@H]1c2cccc(O)c2C(=O)C2=C(O)[C@]3(O)C(=O)C(C(N)=O)=C(O)[C@@H](N(C)C)[C@@H]3[C@@H](O)[C@@H]21` [doxycycline]: the 50% effective concentration (EC50) (in general, the concentration that produces a half-maximal response) in the data set on wt C. trachomatis stood at 54.4 nM; in data set [1] it was 32.8 nM.
Take `COC1=CC(=O)c2c(O)c3c(c(O)c2C1=O)C[C@](C)(O)C[C@@H]3O` [Compound 5, (1S,3S)-austrocortirubin]: in data set [2] (setting [5]), the inhibition (in general, the change of the read-out against control, counted positive when it falls) at 10 µM worked out at 0%. Moreover, the inhibition at 10 µM in [2] (setting [6]) was 13%. For the same molecule, the “Inhibition of Chlamydia growth” value in data set [2] (screen at 10 μM) is reported as “did not inhibit Chlamydia growth”. Moreover, in “in vitro”, the viability (usually a per cent measure of how many cells are alive, often set against a control) at 25 µM stood at 5 ± 0.5% and the viability at 50 µM is 5.5%. In addition, in the data set with HeLa cells (25 μM), the “Reduction of HeLa cell viability” value was found to be 95%. Besides, in the data set on Staphylococcus aureus, the “minimum inhibitory concentration (MIC)” value was 100 µM (≈ 32 µg/mL). Also, in data set [3], the half-inhibitory concentration (IC50) (usually the point on the concentration scale where inhibition reaches its midpoint) is 1900 nM. In the data set on mammalian cells (ref Choomuenwai et al., 2012, Wang et al., 2015), the “Toxic effects on mammalian cells” value is “toxic effects”.
Take `NCCc1c[nH]c2c1C(=O)C1=C(NC=CS1(=O)=O)C2=O` [Compound 10, thiaplakortone A]: the inhibition at 10 µM in data set [2] (setting [5]) amounted to 96%. Besides, the inhibition at 10 µM in data set [2] (setting [6]) was 100%. For the same molecule, in “in vitro”, the viability at 25 µM was 5 ± 0.4% and the viability at 50 µM was 5 ± 0.5%. The “Toxicity to HeLa cells (authors' call)” value in the data set on HeLa cells (non-toxic = viability not below 70% of vehicle control at 25 μM) is given as “toxic”. For the same molecule, the “In vitro antimalarial effect, active concentrations” value in data set [4] is “low nanomolar concentrations”. Besides, in the data set with Trypanosoma brucei, the “Inhibition of Trypanosoma brucei, active concentrations” value is on record as “low micromolar concentrations”. Further, in the data set on T. cruzi, the “Inhibition of T. cruzi, active concentrations” value is on record as “low micromolar concentrations”. The “Toxicity in mammalian cells” value in the data set with mammalian cells (ref Davis et al., 2013) is reported as “moderate toxicity”.
